Measured values reported in US7605154B2, “Substituted Thiazolo [4,5-d]pyrimidines as protein kinase inhibitors” (Janssen Pharmaceutica N.V., priority 2005, dated 2009).
pIC50: −log10 of the molar value. Where “and” joins values, the source holds several entries; their conditions need not be identical. Equal entries are not always repeated.

What was measured:
EGFR = target: T1, EGFR (Homo sapiens, UniProt P00533); experiment: EGFR Kinase Assay; format: biochemical; conditions: GST-EGFR, 5 μM ATP
T1 construct: started at nucleotide 2189 (corresponding to amino acid 667) and ended at the termination codon; made in house; host or cells: Sf9 insect cells (baculovirus)
In short: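 Baculovirus/Sf9-expressed GST-EGFR with biotinylated polyGluTyr substrate, 5 μM ATP plus γ-33P-ATP, in 50 mM Tris pH 8.0, 10 mM MgCl2, 0.1 mM vanadate, 1 mM DTT; 1 h at 30 °C.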

SK-OV-3 [1] = experiment: Cell Proliferation Inhibition Assay (14C-thymidine incorporation), SK-OV-3; format: cell-based; conditions: Homo sapiens
Method: (§1) The ability of a test compound to inhibit unregulated cell proliferation may be determined by measuring incorporation of ^14C-labelled thymidine into newly synthesized DNA within cell lines derived from carcinomas originating from several tissues. Accordingly, the anti-proliferative effect of a compound on cells with a variety of phenotypes may be determined.
The carcinoma cells are trypsinized and counted. The cells (3000-8000 count) are added to each well of a 96-well CytoStar tissue culture treated scintillating microplate (Amersham #RPNQ0160) in complete medium (100 μL) and the plate is then incubated in complete medium for 24 hrs at 37° C. in an inert atmosphere containing 5% CO2. Test compound (1 μL) in 100% DMSO is added to the plate test-wells with DMSO only added to control-wells.
The plate contents are then discarded, the plate is washed twice with PBS (200 μL) and then PBS (200 μL) is added to each well. The plate is sealed and the degree of methyl ^14C-thyrnidine incorporation is quantified on a Packard Top Count.

HeLa = experiment: Cell Proliferation Inhibition Assay (14C-thymidine incorporation), HeLa; format: cell-based; conditions: Homo sapiens
Source text: as §1
(§2) Carcinoma cell lines include those such as HeLa cervical adenocarcinoma (American Type Culture Collection (ATCC), Virginia, Cat. #CCL-2), A375 malignant melanoma (ATCC CRL-1619), SK-OV-3 ovarian adenocarcinoma (ATCC HTB-77), HCT-116 colon carcinoma (CCL-247), PC-3 prostate adenocarcinoma (ATCC CRL-1435), and MDA-MB-231 (Xenogen Corp.)
(§3) The carcinoma cells are trypsinized and counted. […]
(§4) An aliquot of a solution of Methyl ^14C-thymidine (56 mC/mmol) (NEN #NEC568 or Amersham #CFA532) and complete medium (20 uL to provide 0.2 μCi/well) is then added to each well and the plate is incubated for a third 24 hr period at 37° C. in an atmosphere containing 5% CO2. […] The plate is sealed and the degree of methyl ^14C-thyrnidine incorporation is quantified on a Packard Top Count.

A375 = experiment: Cell Proliferation Inhibition Assay (14C-thymidine incorporation), A375; format: cell-based; conditions: Homo sapiens, A-375
Source text: as §1, §2, §3, §4

SK-OV-3 [2] = experiment: SK-OV-3 Cell Migration Inhibition; format: cell-based; conditions: several values in a cell are repeat determinations
HCT-116 = experiment: Cell Proliferation Inhibition Assay (14C-thymidine incorporation), HCT-116; format: cell-based; conditions: Homo sapiens
Source text: as §1, §2, §3, §4

c-Abl kinase = target: T2, c-Abl kinase (Homo sapiens, UniProt P00519); experiment: c-Abl Kinase Assay; format: biochemical; conditions: test concentration of 1 μM; read-out: c-Abl percent inhibition
T2 construct: purchased Upstate Biotechnology, Lake Placid, N.Y
Method: A mixture of a 10× kinase buffer (80 mM MOPS at pH 7.0, 2 mM EDTA and 100 mM Magnesium Acetate), ATP (5 μM final from a 10 mM stock), a peptide […] (50 μM final from a 0.5 mM stock), γ-^33P ATP (10 μCi/μL stock) and water is added to each well (20 μl/well) of a Streptavidin Flashplate.
Test compound in 100% DMSO (0.5 μL) is added to the appropriate wells. Diluted c-Abl kinase (human) (Upstate Biotechnology, Lake Placid, N.Y.) (diluted in a buffer consisting of 20 mM MOPS at pH 7.0, 1 mM EDTA, β-mercaptoethanol (0.1%), Brij-35 (0.01%), glycerol (5%) and 1 mg/ml bovine serum albumin) (2.5 μL) is added to the wells to initiate the reactions.
(§5) The reaction plates are incubated at 30° C. for 40 min. The reaction is terminated by the addition of a 3% phosphoric acid solution (5 μL). The reaction product (10 μL) is spotted onto a P30 filtermat and is washed for 5 minutes in phosphoric acid (75 mM). The wash sequence is repeated two more times and is followed with one final wash in methanol. The plates are then dried, sealed and read on the TopCount scintillation counter after 30 μL scintillation fluid is added.
The 1% percent inhibition value for Compound 64 was derived according to the procedure described in Example 5 at a test concentration of 1 μM.

Lyn kinase = target: T3, Lyn kinase (Homo sapiens, UniProt P07948); experiment: Lyn Kinase Assay; format: biochemical; conditions: test concentration of 1 μM
T3 construct: purchased Upstate biotechnology, Lake Placid, N.Y
Method: A mixture of a 10× kinase buffer (500 mM MOPS at pH 7.5, 1 mM EGTA, 1 mM Sodium Vanadate, 1% β-mercaptoethanol and 100 mM Magnesium Acetate), ATP (5 μM final from a 10 mM stock), polyGluTyr (0.1 mg/mL final from a 1 mg/mL stock), γ-^33P ATP (10 μCi/μL stock) and water (20 μL/well) was added to each well of a Streptavidin Flashplate.
Test compound in 100% DMSO (0.5 μL) was added to the appropriate wells. Diluted Lyn kinase (human) (Upstate biotechnology, Lake Placid, N.Y) (diluted in a buffer consisting of 50 mM Tris at pH 7.5, 0.1 mM EGTA, Sodium Vanadate (0.1 mM), β-mercaptoethanol (0.1%) and 1 mg/mL bovine serum albumin) (2.5 μL) was added to the wells to initiate the reactions.
as §5, with “were” for “are”, “was” for “is”, “and” for “and is”, “times,” for “times and is”, “after adding” for “after”, “fluid.” for “fluid is added.”
Percent inhibition was derived according to the procedure described in Example 5. The results for those compounds tested are shown in Table 3 at a test concentration of 1 μM.

c-Src kinase = target: T4, c-Src kinase (Homo sapiens, UniProt P12931); experiment: c-Src Kinase Assay; format: biochemical; conditions: test concentration of 1 μM
T4 construct: purchased Upstate Biotechnology, Lake Placid, N.Y
Method: A mixure of a 10× kinase buffer (80 mM MOPS at pH 7.0, 2 mM EDTA and 100 mM Magnesium Chloride), ATP (5 μM final from a 10 mM stock), a Cdc2 peptide […] (100 μM final from a 2.5 mM stock), γ-^33P ATP (10 μCi/μL stock) and water (20 μL/well) was added to each well of a Streptavidin Flashplate.
Test compound in 100% DMSO (0.5 μL) was added to the appropriate wells. Diluted c-Src kinase (human) (Upstate Biotechnology, Lake Placid, N.Y.) (diluted in a buffer consisting of 20 mM MOPS at pH 7.0, 1 mM EDTA, β-mercaptoethanol (0.1%), Brij-35 (0.01%), glycerol (5%), and 1 mg/mL bovine serum albumin) (2.5 μL) was added to the wells to initiate the reactions. The reaction plates were incubated at 30° C. for 40 min. The reaction was terminated by the addition of a 3% phosphoric acid solution (5 μL). The reaction product (10 μL) was spotted onto a P30 filtermat and washed for 5 minutes in phosphoric acid (75 mM). The wash sequence was repeated two more times, followed with one final wash in methanol. The plates were then dried, sealed and read on the TopCount scintillation counter after adding 30 μL scintillation fluid.
Percent inhibition was derived according to the procedure described in Example 5. The results for those compounds tested are shown in Table 2 at a test concentration of 1 μM.

HER-2 = target: T5, HER-2 (Homo sapiens, UniProt P04626); experiment: HER-2 Kinase Assay; format: biochemical; conditions: GST-HER2, 1 μM ATP
T5 construct: the nucleotides encoding amino acids 679 to 1255 of HER-2; HIS6-Thrombin (His6 tag with thrombin site) (N); purchased Proqinase (Freiburg, Germany)
Method: The HER-2 kinase used was purified at Proqinase (Freiburg, Germany) from a construct that consisted of a fusion of GST (Glutathione-S-Transferase), HIS6-Thrombin and the nucleotides encoding amino acids 679 to 1255 of HER-2.
A mixture of a 10× kinase reaction buffer (600 mM Hepes at pH 7.5, 30 mM Magnesium Chloride, 0.03 mM Sodium Vanadate and […] PEG 20,000), DTT (1.2 mM final from a 10 mM stock), ATP (1 μM from a 10 mM stock), biotinylated polyGluTyr (1.5 ng/μL final from stock of 1 μg/μL prepared by Upstate Biotechnologies, Lake Placid, N.Y.), Manganese Chloride (3 mM final from a 1 M stock), γ-^33P-ATP (10 μCi/μL stock) and water (70 μL/well) was added to each well of a Streptavidin Flashplate (Cat. # SMP103, NEN, Boston, Mass.).
Test compound stock (1 μL) was added to the appropriate wells. Diluted GSTHER2 kinase (6.7 ng/μL diluted into 50 mM Tris-HCl at pH 8.0 and 0.1% bovine serum albumin) (30 μL) was added (total volume of 200 ng/well) to initiate the reactions.
The reaction plates were incubated at 30° C. for 1 hr. The reaction was terminated by aspirating the reaction mixture from the plate wells and washing the wells three times with a 1×PBS stop buffer (300 μL) and 100 mM EDTA. After the final wash, the same stop buffer (200 μL) was again added to the wells. The plates were then sealed and read on the TopCount scintillation counter. […]

T1 sequence (P00533 667-1210 limits assumed): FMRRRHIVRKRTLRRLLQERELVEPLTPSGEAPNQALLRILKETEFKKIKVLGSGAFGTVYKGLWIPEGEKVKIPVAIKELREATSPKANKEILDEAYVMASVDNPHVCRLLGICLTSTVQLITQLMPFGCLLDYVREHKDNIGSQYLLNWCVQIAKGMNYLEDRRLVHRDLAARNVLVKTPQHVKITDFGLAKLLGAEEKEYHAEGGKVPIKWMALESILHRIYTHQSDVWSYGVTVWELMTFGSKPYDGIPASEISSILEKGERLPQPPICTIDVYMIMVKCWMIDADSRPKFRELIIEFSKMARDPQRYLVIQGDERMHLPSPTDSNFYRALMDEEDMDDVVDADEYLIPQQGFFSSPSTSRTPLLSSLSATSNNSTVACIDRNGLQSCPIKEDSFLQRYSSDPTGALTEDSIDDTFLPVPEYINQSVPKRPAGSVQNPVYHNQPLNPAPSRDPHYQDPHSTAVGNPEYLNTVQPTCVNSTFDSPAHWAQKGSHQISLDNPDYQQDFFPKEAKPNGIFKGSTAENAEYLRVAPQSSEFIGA
T3 sequence (P07948 whole entry): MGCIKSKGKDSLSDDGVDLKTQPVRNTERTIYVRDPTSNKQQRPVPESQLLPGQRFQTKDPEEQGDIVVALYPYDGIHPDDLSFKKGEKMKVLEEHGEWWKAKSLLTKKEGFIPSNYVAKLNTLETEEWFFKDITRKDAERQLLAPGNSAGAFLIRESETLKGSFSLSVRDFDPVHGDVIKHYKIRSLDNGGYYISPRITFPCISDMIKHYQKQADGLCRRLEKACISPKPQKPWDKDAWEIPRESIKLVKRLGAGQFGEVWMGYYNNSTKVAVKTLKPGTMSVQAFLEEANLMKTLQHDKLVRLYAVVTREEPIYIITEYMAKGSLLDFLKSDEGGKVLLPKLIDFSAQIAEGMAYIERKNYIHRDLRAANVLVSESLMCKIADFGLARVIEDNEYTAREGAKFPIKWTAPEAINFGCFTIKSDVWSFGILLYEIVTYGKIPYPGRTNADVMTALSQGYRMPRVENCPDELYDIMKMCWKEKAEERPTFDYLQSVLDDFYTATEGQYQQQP
T5 sequence (P04626 679-1255): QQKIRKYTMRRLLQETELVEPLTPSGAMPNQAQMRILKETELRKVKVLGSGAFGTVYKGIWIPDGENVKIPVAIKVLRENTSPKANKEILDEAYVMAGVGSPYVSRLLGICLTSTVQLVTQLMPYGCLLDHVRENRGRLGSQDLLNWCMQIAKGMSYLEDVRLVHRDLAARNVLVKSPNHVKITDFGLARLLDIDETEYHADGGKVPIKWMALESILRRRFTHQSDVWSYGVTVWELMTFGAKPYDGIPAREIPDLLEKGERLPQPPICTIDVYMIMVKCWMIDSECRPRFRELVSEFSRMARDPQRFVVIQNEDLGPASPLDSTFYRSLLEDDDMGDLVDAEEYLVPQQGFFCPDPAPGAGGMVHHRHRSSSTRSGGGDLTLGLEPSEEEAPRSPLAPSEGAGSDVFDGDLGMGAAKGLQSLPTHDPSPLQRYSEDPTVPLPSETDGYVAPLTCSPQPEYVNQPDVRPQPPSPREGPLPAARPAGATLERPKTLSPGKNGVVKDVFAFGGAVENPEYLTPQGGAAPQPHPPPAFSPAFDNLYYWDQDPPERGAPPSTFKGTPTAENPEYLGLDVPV
T4 sequence (P12931 whole entry): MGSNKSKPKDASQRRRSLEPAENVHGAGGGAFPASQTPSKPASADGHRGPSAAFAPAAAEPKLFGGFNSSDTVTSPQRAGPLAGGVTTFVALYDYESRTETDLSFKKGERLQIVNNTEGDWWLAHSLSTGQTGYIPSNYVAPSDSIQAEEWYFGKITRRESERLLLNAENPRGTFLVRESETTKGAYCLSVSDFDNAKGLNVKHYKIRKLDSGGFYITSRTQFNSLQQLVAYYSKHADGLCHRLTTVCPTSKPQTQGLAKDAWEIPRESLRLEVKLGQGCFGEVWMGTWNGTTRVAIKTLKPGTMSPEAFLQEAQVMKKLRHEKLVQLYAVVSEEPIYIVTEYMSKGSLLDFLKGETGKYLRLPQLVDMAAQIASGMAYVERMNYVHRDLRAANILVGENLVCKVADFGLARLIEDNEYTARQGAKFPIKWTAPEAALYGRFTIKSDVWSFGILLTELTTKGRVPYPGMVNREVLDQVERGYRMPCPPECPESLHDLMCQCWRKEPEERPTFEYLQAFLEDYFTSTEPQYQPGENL
T2 sequence (P00519 whole entry): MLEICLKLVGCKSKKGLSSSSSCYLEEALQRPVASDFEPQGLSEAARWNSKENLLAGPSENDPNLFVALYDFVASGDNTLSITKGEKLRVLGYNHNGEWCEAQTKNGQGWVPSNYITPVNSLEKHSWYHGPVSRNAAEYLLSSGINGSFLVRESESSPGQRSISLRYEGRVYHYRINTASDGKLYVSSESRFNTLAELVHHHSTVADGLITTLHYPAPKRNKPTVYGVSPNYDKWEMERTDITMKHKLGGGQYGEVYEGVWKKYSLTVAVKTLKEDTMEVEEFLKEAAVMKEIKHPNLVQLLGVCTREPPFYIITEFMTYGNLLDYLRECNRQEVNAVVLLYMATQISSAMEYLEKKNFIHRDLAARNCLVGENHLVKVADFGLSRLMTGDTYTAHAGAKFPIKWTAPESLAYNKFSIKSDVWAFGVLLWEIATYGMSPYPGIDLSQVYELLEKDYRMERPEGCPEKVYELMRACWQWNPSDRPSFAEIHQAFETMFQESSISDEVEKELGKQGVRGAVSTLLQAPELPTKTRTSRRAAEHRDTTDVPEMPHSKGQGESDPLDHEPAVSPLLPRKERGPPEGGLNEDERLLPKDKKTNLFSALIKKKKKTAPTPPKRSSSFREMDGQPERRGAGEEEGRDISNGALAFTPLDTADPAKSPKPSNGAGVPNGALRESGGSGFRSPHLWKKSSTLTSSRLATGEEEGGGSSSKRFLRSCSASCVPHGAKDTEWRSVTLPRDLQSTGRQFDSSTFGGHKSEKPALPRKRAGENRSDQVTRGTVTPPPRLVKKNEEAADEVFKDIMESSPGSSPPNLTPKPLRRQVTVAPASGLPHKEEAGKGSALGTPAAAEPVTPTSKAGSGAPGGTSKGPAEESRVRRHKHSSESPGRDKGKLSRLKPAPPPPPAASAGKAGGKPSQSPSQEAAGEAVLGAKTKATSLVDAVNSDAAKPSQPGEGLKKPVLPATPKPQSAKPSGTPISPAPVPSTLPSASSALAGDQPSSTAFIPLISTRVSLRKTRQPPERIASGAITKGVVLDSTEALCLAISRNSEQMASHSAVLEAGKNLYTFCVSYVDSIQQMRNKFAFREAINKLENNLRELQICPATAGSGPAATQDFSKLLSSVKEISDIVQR

`Fc1ccc(Nc2ncnc3nc(Nc4ccc(CN5CCCCC5)cc4)sc23)cc1Cl` [Cpd 2, N^7-(3-chloro-4-fluoro-phenyl)-N^2-(4-piperidin-1-ylmethyl-phenyl)-thiazolo[4,5-d]pyrimidine-2,7-diamine] showed a pIC50 (EGFR) of 8.05 and a pIC50 (SK-OV-3 [1]) of 6.31.

`CN(C)CCc1ccc(Nc2nc3ncnc(Nc4ccc(F)c(Cl)c4)c3s2)cc1` [Cpd 11, N^7-(3-chloro4-fluoro-phenyl)-N^2-[4-(2-dimethylamino-ethyl)-phenyl]-thiazolo[4,5-d]pyrimidine-2,7-diamine] was tested, and the pIC50 (EGFR) was 7.89 and the pIC50 (SK-OV-3 [1]) was 6.22.

Work on `Fc1ccc(Nc2ncnc3nc(Nc4ccc(CN5CCCC5)cc4)sc23)cc1Cl` [Cpd 17, N^7-(3-chloro-4-fluoro-phenyl)-N^2-(4-pyrrolidin-1-ylmethyl-phenyl)-thiazolo[4,5-d]pyrimidine-2,7-diamine] yielded a pIC50 (EGFR) of 8.38 and a pIC50 (SK-OV-3 [1]) of 6.21.

For `Fc1ccc(Nc2ncnc3nc(Nc4ccc(CN5CCOCC5)cc4)sc23)cc1Cl` [Cpd 18, N^7-(3-chloro-4-fluoro-phenyl)-N^2-(4-morpholin-4-ylmethyl-phenyl)-thiazolo[4,5-d]pyrimidine-2,7-diamine], the pIC50 (HeLa) was < 4.00, the pIC50 (EGFR) was 7.81 and the pIC50 (A375) was < 4.00. The pIC50 (SK-OV-3 [2]; Homo sapiens, SK-OV-3, SK-OV-3 migration) was 6.73, the pIC50 (SK-OV-3 [2]; SK-OV-3 migration) was 6.81 and 6.85 and the pIC50 (HCT-116) was < 4.00.

Molecule `C#Cc1cccc(Nc2ncnc3nc(Nc4ccc(CNC[C@H]5CCCO5)cc4)sc23)c1` [Cpd 64, N^7-(3-ethynyl-phenyl)-N^2-(4-{[(2R)-(tetrahydro-furan-2-ylmethyl)-amino]-methyl}-phenyl)-thiazolo[4,5-d]pyrimidine-2,7-diamine] has an inhibition at 1 µM (c-Abl kinase) of 1%, a pIC50 (EGFR) of 8.40 and an inhibition at 1 µM (Lyn kinase) of 17%. For the same molecule, the inhibition at 1 µM (c-Src kinase) was 21%.

For `C#Cc1cccc(Nc2ncnc3nc(Nc4ccc(CNCC(O)CO)cc4)sc23)c1` (centres unmarked) [Cpd 66, 3-{4-[7-(3-ethynyl-phenylamino)-thiazolo[4,5-d]pyrimidin-2-ylamino]-benzylamino}-propane-1,2-diol], the pIC50 (EGFR) was 8.14, the inhibition at 1 µM (Lyn kinase) was 25% and the inhibition at 1 µM (c-Src kinase) was 15%.

`CN1CCN(Cc2ccc(Nc3nc4ncnc(Nc5ccc(OCc6cccc(F)c6)c(Cl)c5)c4s3)cc2)CC1` [Cpd 68, N^7-[3-chloro-4-(3-fluoro-benzyloxy)-phenyl]-N^2-[4-(4-methyl-piperazin-1-ylmethyl)-phenyl]-thiazolo[4,5-d]pyrimidine-2,7-diamine] was tested, and the pIC50 (HeLa) was 5.66, the pIC50 (EGFR) was 7.69 and the pIC50 (A375) was 5.69. It also gave a pIC50 (HER-2) of 6.56 and a pIC50 (HCT-116) of 5.51.

For `CN1CCN(Cc2ccc(Nc3nc4ncnc(Nc5ccc(Oc6ccccc6)cc5)c4s3)cc2)CC1` [Cpd 94, N^2-[4-(4-methyl-piperazin-1-ylmethyl)-phenyl]-N^7-(4-phenoxy-phenyl)-thiazolo[4,5-d]pyrimidine-2,7-diamine], the pIC50 (EGFR) was 6.50 and the pIC50 (HER-2) was 5.73.
